Assay [1] has as its system RF strain of HIV (CEM-SS cells). Nature of the assay: Cell Culture Anti-HIV Activity (cell viability, formazan). Particulars: CEM-SS cells, RF strain of HIV, multiplicity of infection 0.04, 6 days at 37° C., 450 nm, read-out: HIV (CEM Cells) IC50. In kind it is cell-based. An outline of the steps:
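Half-log compound dilutions added to CEM-SS cells (5000/well) carrying HIV RF (MOI 0.04), 6 days, 37° C. Cell protection measured as formazan from tetrazolium, A450. IC50: drug level restoring infected-cell formazan to 50% of the uninfected untreated control.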

In assay [2] the target is T1, HIV protease (Human immunodeficiency virus type 1 group M subtype B, UniProt P04585).
T1 construct: and purified protease
Nature of the assay: HIV Protease Assay. In kind it is biochemical. Conditions: for inhibition at 10 µM: pH 5.5, 10 μM inhibitor, read-out: HIV Protease % Inhibition at 10 μM. The procedure, abridged: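 At a single final concentration of 10 μM (4% DMSO), inhibitors were added to a 30-minute, 37° C reaction of purified enzyme with 450 μM H2N-Val-Ser-Gln-Asn-(β-naphthyl-alanine)-Pro-Val-Ile-OH at pH 5.5 (sodium acetate, BSA). Hydrolysis was quantified by reverse-phase HPLC with 220 nm detection after acid quench.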

The mark [3] stands for this setting: Human immunodeficiency virus 1, CEM-SS, 144 h.
[4] abbreviates: 4% DMSO, 450 μM substrate, pH 5.5, 30 minutes at 37° C., RP-HPLC.

Read-outs that look alike come from different tables or passages of the source.

As a reminder, the IC50 is the concentration needed to halve the response being measured. As a reminder, the inhibition is the relative decrease from the control value, in per cent. With `CC(C)(C)OC(=O)N[C@@H](Cc1ccccc1)[C@H](O)CNC[C@@H](O)[C@H](Cc1ccccc1)NC(=O)OC(C)(C)CCCOCc1ccccc1` [Compound 210, [1S-(1R*,2S*)]-[Iminobis[2-hydroxy-1-(phenylmethyl)-3,1-propanediyl]]biscarbamic acid, 1,1-dimethylethyl-4-(phenylmethoxy)-1,1-dimethylbutyl ester], the IC50 in assay [1] (setting [3]) was over 5 µM. Moreover, in assay [2] (setting [4]), the inhibition at 10 µM is 81%.

In the case of `CC(C)(C)OC(=O)N[C@@H](Cc1ccccc1)[C@H](O)CNC[C@@H](O)[C@H](Cc1ccc(OCCc2ccccn2)cc1)NC(=O)OC(C)(C)C` [Compound 178, [1S-[1R*,2S*(2S*,3R*)]]-[3-[[3-[[(1,1-Dimethylethoxy)carbonyl]amino]-2-hydroxy-4-(4-[2-(2-pyridinyl)ethoxy]phenyl]butyl]amino]-2-hydroxy-1-(phenylmethyl)-propyl]carbamic acid, 1,1-dimethyl-ethyl ester], the IC50 in assay [1] (setting [3]) is 0.03 µM. Further, the inhibition at 10 µM in assay [2] (setting [4]) was 99%.

Turning to `CC(C)(C)OC(=O)N[C@@H](Cc1ccccc1)[C@H](O)CNC[C@@H](O)[C@H](Cc1ccccc1)NC(=O)C1(O)CCCC1(C)C` (single isomer, unassigned; isomer b) [Compound 322, [1S-[1R*,2S*(2S*,3R*)]]-[3-[[3-[[2,2-Dimethyl-1-hydroxycyclopentyl)-carbonyl]amino]-2-hydroxy-4-phenylbutyl]amino]-2-hydroxy-1-(phenylmethyl)-propyl]carbamic acid, 1,1-dimethylethyl ester, isomer B], the IC50 in assay [1] was 0.02 µM. In addition, in assay [2], the “HIV Protease % Inhibition at 10 μM” value stood at 100%.

For the molecule `CC(C)[C@H](NC(=O)CC(O)CO)C(=O)N[C@@H](Cc1ccccc1)[C@H](O)CNC[C@@H](O)[C@H](Cc1ccccc1)NC(=O)OC(C)(C)C` (relative stereo) [Compound 254, [1R*,2S*(2S*,3R*)]-N-[3-[[3-[[(1,1-Dimethylethoxy)carbonyl]amino]-2-hydroxy-4-phenylbutyl]amino]-2-hydroxy-1-(phenylmethyl)propyl]-N^2-(3,4-dihydroxy-1-oxobutyl)-L-valinamide], the IC50 in assay [1] (setting [3]) amounted to 17 µM. Besides, the inhibition at 10 µM in assay [2] (setting [4]) is 98%.

`CC(C)(C)OC(=O)N[C@@H](Cc1ccccc1)[C@H](O)CNC[C@@H](O)[C@H](Cc1ccccc1)NC(=O)C(NC(=O)OCc1ccccc1)C(C)(C)CO` (single isomer, unassigned; isomer b) [Compound 309, [1S-[1R*,2S*(2S*, 3R*)]]-[1-[[[3-[[(1,1-Dimethylethoxy)carbonyl]amino]-2-hydroxy-4-phenylbutyl]amino]-2-hydroxy-1-(phenylmethyl)-propyl]amino]carbonyl]-2-(hydroxymethyl)-2-methylpropyl]carbamic acid, phenylmethyl ester. isomer B]: the IC50 in assay [1] stood at 1.8 µM. In assay [2] (10 μM inhibitor, 4% DMSO, 450 μM substrate, pH 5.5, 30 minutes at 37° C., RP-HPLC), the “HIV Protease % Inhibition at 10 μM” value came to 100%.

On to `CC(C)(C)OC(=O)N[C@@H](Cc1ccccc1)[C@H](O)CNC[C@@H](O)[C@H](Cc1ccccc1)NC(=O)OC[C@@H](O)CO` [Compound 230, [1S-(1R*,2S*),(R*)]-[Iminobis[2-hydroxy-1-(phenylmethyl)-3,1-propanediyl]]biscarbamic acid, 2,3-dihydroxypropyl 1,1-dimethylethyl ester], for which, in assay [1] (setting [3]), the IC50 was 4.9 µM. The inhibition at 10 µM in assay [2] (setting [4]) is 92%.

Turning to `CC(C)(C)OC(=O)N[C@@H](Cc1ccccc1)[C@H](O)CNC[C@@H](O)[C@H](Cc1ccccc1)NC(=O)OC(C)(C)[C@@H](O)CO` [Compound 227, [1S-(1R*,2S*),(R*)]-[Iminobis[2-hydroxy-1-(phenylmethyl)-3,1-propanediyl]]biscarbamic acid, 2,3-dihydroxy-1,1-dimethylpropyl 1,1-dimethylethyl ester], in assay [1] (setting [3]), the IC50 was 0.9 µM. For the same molecule, the inhibition at 10 µM in assay [2] (setting [4]) was 99%.

For `CC(C)(C)OC(=O)N[C@@H](Cc1ccccc1)[C@H](O)CNC[C@@H](O)[C@H](Cc1ccccc1)NC(=O)[C@H](CCO)NC(=O)OCc1ccccc1` (relative stereo) [Compound 264, [1R*2S*(2S*,3R*)]-N-[3-[[3-[[(1,1-Dimethylethoxy)carbonyl]amino]-2-hydroxy-4-phenylbutyl]amino]-2-hydroxy-l-(phenylmethyl)propyl]-N^2-[(phenylmethoxy)carbonyl]-L-homoserinamide], the IC50 in assay [1] (setting [3]) came out at 0.16 µM. In addition, in assay [2] (setting [4]), the inhibition at 10 µM was 99%.

In the case of `CC(C)(C)OC(=O)N[C@@H](Cc1ccccc1)[C@H](O)CNC[C@@H](O)[C@H](Cc1ccccc1)NC(=O)[C@H](O)C(C)(C)C` [Compound 334, [1S-[1R*,2S*[2S*,3R*(S*)]]]-[3-[[3-[(2-Hydroxy-3,3-dimethyl-1-oxobutyl)amino]-2-hydroxy-4-phenylbutyl]amino]-2-hydroxy-1-(phenylmethyl)propyl]carbamic acid, 1,1-dimethylethyl ester], in assay [1] (setting [3]), the concentration for half-maximal inhibition (IC50) is 0.05 µM. In addition, the inhibition at 10 µM in assay [2] (setting [4]) was 99%.

As to `CC(C)(C)OC(=O)N[C@@H](C/C=C/c1ccc(O)cc1)[C@H](O)CNC[C@@H](O)[C@H](Cc1ccccc1)NC(=O)OC(C)(C)C` [Compound 235, [1S-[1R*,2S*[2S*,3R*(E)]]]-[3-[[3-[[(1,1-Dimethylethoxy)carbonyl]amino]-2-hydroxy-6-(4-hydroxyphenyl)-5-hexenyl]amino]-2-hydroxy-1-(phenylmethyl)propyl]carbamic acid, 1,1-dimethylethyl ester], in assay [1] (setting [3]), the IC50 came to 0.35 µM. The inhibition at 10 µM in assay [2] (setting [4]) turned out to be 97%.

For `CC(C)(C)OC(=O)N[C@@H](Cc1ccccc1)[C@H](O)CNC[C@@H](O)[C@H](Cc1ccccc1)NC(=O)C1(NC(=O)OCc2ccccc2)CCCC1` [Compound 87, [1S-[1R*,2S*(2S*,3R*)]]-[2-Hydroxy3-[[2-hydroxy-3-[[[1-[[(phenylmethoxy)-carbonyl]amino]cycloyentyl]carbonyl]amino]-4-phenylbutyl]-amino]-1-(phenylmethyl)propoyl]carbamic acid, 1,1-dimethylethyl ester], the IC50 in assay [1] (setting [3]) was over 0.88 µM. For the same molecule, the inhibition at 10 µM in assay [2] (setting [4]) is 92%.

In the case of `CC(C)C(C)(NC(=O)OCc1ccccc1)C(=O)N[C@@H](Cc1ccccc1)[C@H](O)CNC[C@@H](O)[C@H](Cc1ccccc1)NC(=O)OC(C)(C)C` (stereo partly drawn) [Compound 73, [(S,R)-3-[[(R,S)-3-[[2-[[(Phenyl-methoxy)carbonyl)amino]-2,3-dimethyl-1-oxy-butyl]amino]-2-hydroxy-4-phenylbutyl]amino]-2-hydroxy-1-(phenylmethyl)-propyl]carbamic acid, 1,1-dimethylethyl ester], in assay [1] (setting [3]), the IC50 came to 0.6 µM. For the same molecule, in assay [2] (setting [4]), the inhibition at 10 µM was found to be 99%.

With `CNC(=O)C(C(=O)N[C@@H](Cc1ccccc1)[C@H](O)CNC[C@@H](O)[C@H](Cc1ccccc1)NC(=O)OC(C)(C)C)C(C)(C)C` (stereo partly drawn) [Compound 354, [1S-[1R*,2S*(2S*,3R*)]]-[3-[[3-[[3,3-Dimethyl-2-[(methylamino)carbonyl]-1-oxobutyl]amino]-2-hydroxy-4-phenylbutyl]amino]-2-hydroxy-1-(phenylmethyl)propyl]carbamic acid, 1,1-dimethylethyl ester], the IC50 in assay [1] (setting [3]) stood at 0.12 µM. Besides, the inhibition at 10 µM in assay [2] (setting [4]) turned out to be 99%.

For `CC(C)(C)OC(=O)N[C@@H](Cc1ccccc1)[C@H](O)CNC[C@@H](O)[C@H](Cc1ccccc1)NC(=O)OC1COC1` [Compound 319], the IC50 in assay [1] (setting [3]) was 1.37 µM. In assay [2] (setting [4]), the inhibition at 10 µM worked out at 93%.

In the case of `O=C(N[C@@H](Cc1ccccc1)[C@H](O)CNC[C@@H](O)[C@H](Cc1ccccc1)NC(=O)c1ccccc1)c1ccccc1` [Compound 36, [S-(1R*,2S*)]-N,N'-[Iminobis[2-hydroxy-1-(phenylmethyl)-3,1-propanediyl]]bisbenzamide], in assay [1] (setting [3]), the IC50 was over 8 µM. Also, in assay [2] (setting [4]), the inhibition at 10 µM came out at 36%.

Regarding `CC(C)(C)OC(=O)N[C@@H](Cc1ccccc1)[C@H](O)CNC[C@@H](O)[C@H](Cc1ccccc1)NC(=O)C(C)(O)C(C)(C)CO` (single isomer, unassigned; isomer b) [Compound 357, [1S-[1R*,2S*(2S*,3R*)]]-[3-[[3-[(2,4-Dihydroxy-2,3,3-trimethyl-1-oxobutyl)amino]-2-hydroxy-4-phenylbutyl]amino]-2-hydroxy-1-(phenylmethyl)propyl]carbamic acid, 1,1-dimethylethyl ester, isomer B], in assay [1], the IC50 was 0.11 µM. The “HIV Protease % Inhibition at 10 μM” value in assay [2] was found to be 99%.

In the case of `CC(C)(C)OC(=O)N[C@@H](Cc1ccccc1)[C@H](O)CNC[C@@H](O)[C@H](Cc1ccccc1)NC(=O)OC(C)(C)CNC=O` [Compound 236, [1S-(1R*,2S*)]-[Iminobis[2-hydroxy-1-(phenylmethyl)-3,1-propanediyl]]biscarbamic acid, 2-(formylamino)-1,1-dimethylethyl 1,1-dimethylethyl ester], the IC50 in assay [1] (setting [3]) came out at 0.7 µM. Moreover, the inhibition at 10 µM in assay [2] (setting [4]) turned out to be 89%.

Regarding `C[C@H](O)C(C)(C)OC(=O)N[C@@H](Cc1ccccc1)[C@H](O)CNC[C@@H](O)[C@H](Cc1ccccc1)NC(=O)OC(C)(C)C` [Compound 232, [1S-(1R*,2S*),(R*)]-[Iminobis[2-hydroxy-1-(phenylmethyl)-3,1-propanediyl]]biscarbamic acid, 1,1-dimethylethyl 2-hydroxy-1,1-dimethylpropyl ester], the IC50 in assay [1] (setting [3]) was found to be 0.05 µM. In assay [2] (setting [4]), the inhibition at 10 µM was 99%.
